In patent US9116112B2, “UV protective skin treatment compositions and screening methods” (JR Chem LLC, priority 2011, dated 2015):
Where “and” joins values, the source holds several entries; their conditions need not be identical. Identical values can stand only once.

Key:
[1] = Table 2, Water or Lipid; cited from earlier work
[2] = Briggs-Rauscher Oscillation Reaction Method (BROM) antioxidant capacity; type: biochemical; details: for BROM: Table 2, common antioxidants present in body fluids and tissues; for calculated BROM value at product concentration: Arbutin at 0.2 wt. %, BHT at 0.1 wt. %; for BROM value of individual antioxidant: text b80, rounded values used for calculation
Balb/c 3T3 cells = experiment: 3T3 Neutral Red Uptake Phototoxicity Test (3T3 NRU PT); type: cell-based, murine; details: positive control, dose dates 03/10/11, 03/15/11, 03/22/11
Description: The 3T3 Neutral Red Phototoxicity Test (3T3 NRU PT) was used to assess toxicological performance. It is a relatively new assay that was adopted by regulatory agencies such as OECD and FDA as an accepted method for the assessment of phototoxic potential of test substances. It is an in-vitro toxicological assessment test used to determine cytotoxic and photo(cyto)toxicity effect of a test article to murine fibroblasts in the presence or absence of UVA light (99% UVA/1% UVB). The 3T3 Neutral Red Uptake Phototoxicity Assay (3T3 NRU PT) can be utilized to identify the phototoxic effect of a test substance induced by the combination of test substance and light and is based on the comparison of the cytotoxic effect of a test substance when tested after the exposure and in the absence of exposure to a non-cytotoxic dose of UVA/vis light. Cytotoxicity is expressed as a concentration dependent reduction of the uptake of the vital dye—Neutral Red. […]
For both the range finding screen and the definitive test, Balb/c 3T3 cells were seeded in the central 60 wells of duplicate 96-well microplates per test article and maintained in culture for 24 hours. […] After UV irradiation, the treatment medium was replaced with culture medium and after 24 hours, cell viability was determined by neutral red uptake for 3 hours. […]

O=c1[nH]c(=O)c2[nH]c(=O)[nH]c2[nH]1 [Uric Acid, Uric acid]
Solubility [1]: Water | BROM [2]: 9.14 s/µg | Result [s/μg] (BROM by Strength) ([2]; Table 3, solvent Water): 9.14 s/µg

OC[C@H]1O[C@@H](Oc2ccc(O)cc2)[C@H](O)[C@@H](O)[C@@H]1O (racemic) [Arbutin Racemic mixture, Arbutin]
Result [s/μg] (BROM by Strength) ([2]; Table 3, solvent 50% Ethanol): 47 s/µg | Result [s/μg] (BROM by Strength) ([2]; Table 3, solvent Water): 49.4 s/µg

NC(=O)NC1NC(=O)NC1=O (centres unmarked) [Allantoin]
Result [s/μg] (BROM by Strength) ([2]; Table 3, solvent Water): 0 s/µg

Carotenes
Solubility [1]: Lipid

OC[C@H]1O[C@@H](Oc2ccc(O)cc2)[C@H](O)[C@@H](O)[C@@H]1O [8 Arbutin]
Result [s/μg] (BROM by Strength) ([2]; Table 3, solvent Water): 40.53 s/µg

Cc1c(C)c2c(c(C)c1O)CC[C@@](C)(CCC[C@H](C)CCC[C@H](C)CCCC(C)C)O2 [α-Tocopherol (vitamin E), α-Tocopherol]
Solubility [1]: Lipid | BROM value [2]: 0 s/µg | BROM [2]: 0 s/µg

OC[C@H]1O[C@@H](Oc2ccc(O)cc2)[C@H](O)[C@@H](O)[C@@H]1O [Arbutin]
calculated BROM value at product concentration [2]: 0.1 | BROM value of individual antioxidant [2]: 50 s/µg

CN(C)CCCN1c2ccccc2Sc2ccc(Cl)cc21 [CPZ, Chloropromazine]
EC50 +SSL (Balb/c 3T3 cells; +SSL): 0.394 µg/mL and 0.725 µg/mL and 0.682 µg/mL | EC50 No SSL (Balb/c 3T3 cells; dark): 19.592 µg/mL and 24.805 µg/mL and 26.457 µg/mL

O=C[C@H](O)[C@@H](O)[C@H](O)[C@H](O)CO [D-Glucose]
Result [s/μg] (BROM by Strength) ([2]; Table 3, solvent Water): 0 s/µg

CCCCC(CC)COC(=O)C(C#N)=C(c1ccccc1)c1ccc(OC)cc1 (centres unmarked) [Solastay S1]
Result [s/μg] (BROM by Strength) ([2]; Table 3, solvent Ethanol): 0 s/µg

Oc1ccc(O)cc1 [Hydroquinone]
Result [s/μg] (BROM by Strength) ([2]; Table 3, solvent 50% Ethanol): 1.1 s/µg | Result [s/μg] (BROM by Strength) ([2]; Table 3, solvent Water): 1.31 s/µg

O=C1O[C@H]([C@@H](O)CO)C(O)=C1O [Ascorbic Acid, Ascorbic acid]
BROM value [2]: 0.00105 s/µg | electron scavenging capacity (BROM) [2]: do not show measurable electron scavenging capacity | BROM [2]: 0.00105 s/µg | Result [s/μg] (BROM by Strength) ([2]; Table 3, solvent Water): 0.00105 s/µg

Oc1cccc(O)c1 [Resorcinol]
Result [s/μg] (BROM by Strength) ([2]; Table 3, solvent Water): 30.39 s/µg

CC(C)(C)c1cc(O)ccc1O [Tert-Butylhydroquinone]
Result [s/μg] (BROM by Strength) ([2]; Table 3, solvent Ethanol): 0.13 s/µg

Cc1c(C)c2c(c(C)c1O)CCC(C)(C(=O)O)O2 (centres unmarked) [Trolox]
electron scavenging capacity (BROM) [2]: do not show measurable electron scavenging capacity | Result [s/μg] (BROM by Strength) ([2]; Table 3, solvent Ethanol): 0.021 s/µg

COc1c(O)c(C)c(C/C=C(\C)CC/C=C(\C)CC/C=C(\C)CC/C=C(\C)CC/C=C(\C)CC/C=C(\C)CC/C=C(\C)CC/C=C(\C)CC/C=C(\C)CCC=C(C)C)c(O)c1OC [Ubiquinol (coenzyme Q10), Ubiquinol]
Solubility [1]: Lipid | BROM [2]: 0 s/µg

O=C1O[C@H]([C@@H](O)CO)C(O)=C1O[C@H]1O[C@H](CO)[C@@H](O)[C@H](O)[C@H]1O [Ascorbyl Glucoside]
Result [s/μg] (BROM by Strength) ([2]; Table 3, solvent Water): No clear

CC(C)c1c(C(=O)Nc2ccccc2)c(-c2ccccc2)c(-c2ccc(F)cc2)n1CC[C@@H](O)C[C@@H](O)CC(=O)O [Atorvastatin (Lipitor), Atorvastatin]
Result [s/μg] (BROM by Strength) ([2]; Table 3, solvent Ethanol): 8.41 s/µg

CC1=C(/C=C/C(C)=C/C=C/C(C)=C/C(=O)O)C(C)(C)CCC1 [Tretinoin]
BROM [2]: 0 s/µg | Result [s/μg] (BROM by Strength) ([2]; Table 3, solvent Ethanol): 0 s/µg

COc1ccc(C(=O)c2ccccc2)c(O)c1 [Oxybenzone]
Result [s/μg] (BROM by Strength) ([2]; Table 3, solvent Ethanol): 0 s/µg

N[C@@H](CCC(=O)N[C@@H](CS)C(=O)NCC(=O)O)C(=O)O [Glutathione]
Solubility [1]: Water | BROM [2]: 0.000991 s/µg | Result [s/μg] (BROM by Strength) ([2]; Table 3, solvent Water): 0.000991 s/µg

COc1ccc([C@@H]2CC(=O)c3c(O)cc(O[C@@H]4O[C@H](CO[C@@H]5O[C@@H](C)[C@H](O)[C@@H](O)[C@H]5O)[C@@H](O)[C@H](O)[C@H]4O)cc3O2)cc1O [Hesperidin]
Result [s/μg] (BROM by Strength) ([2]; Table 3, solvent Water): 5.38 s/µg

CC(=O)Oc1c(C)c(C)c2c(c1C)CCC(C)(CCC[C@H](C)CCC[C@H](C)CCCC(C)C)O2 (some centres unmarked) [Vitamin E Acetate]
electron scavenging capacity (BROM) [2]: do not show measurable electron scavenging capacity | Result [s/μg] (BROM by Strength) ([2]; Table 3, solvent Ethanol): 0 s/µg

Cc1cc(C(C)(C)C)c(O)c(C(C)(C)C)c1 [BHT, butylatedhydroxytoluene]
calculated BROM value at product concentration [2]: 0.03 | Result [s/μg] (BROM by Strength) ([2]; Table 3, solvent 50% Ethanol): 34.53 s/µg | Result [s/μg] (BROM by Strength) ([2]; Table 3, solvent Ethanol): 29.4 s/µg | BROM value of individual antioxidant [2]: 30 s/µg
